For one assay, the target named is T1, Adenylate cyclase (Arthrospira platensis, UniProt O32393).
T1 sequence (O32393 whole entry): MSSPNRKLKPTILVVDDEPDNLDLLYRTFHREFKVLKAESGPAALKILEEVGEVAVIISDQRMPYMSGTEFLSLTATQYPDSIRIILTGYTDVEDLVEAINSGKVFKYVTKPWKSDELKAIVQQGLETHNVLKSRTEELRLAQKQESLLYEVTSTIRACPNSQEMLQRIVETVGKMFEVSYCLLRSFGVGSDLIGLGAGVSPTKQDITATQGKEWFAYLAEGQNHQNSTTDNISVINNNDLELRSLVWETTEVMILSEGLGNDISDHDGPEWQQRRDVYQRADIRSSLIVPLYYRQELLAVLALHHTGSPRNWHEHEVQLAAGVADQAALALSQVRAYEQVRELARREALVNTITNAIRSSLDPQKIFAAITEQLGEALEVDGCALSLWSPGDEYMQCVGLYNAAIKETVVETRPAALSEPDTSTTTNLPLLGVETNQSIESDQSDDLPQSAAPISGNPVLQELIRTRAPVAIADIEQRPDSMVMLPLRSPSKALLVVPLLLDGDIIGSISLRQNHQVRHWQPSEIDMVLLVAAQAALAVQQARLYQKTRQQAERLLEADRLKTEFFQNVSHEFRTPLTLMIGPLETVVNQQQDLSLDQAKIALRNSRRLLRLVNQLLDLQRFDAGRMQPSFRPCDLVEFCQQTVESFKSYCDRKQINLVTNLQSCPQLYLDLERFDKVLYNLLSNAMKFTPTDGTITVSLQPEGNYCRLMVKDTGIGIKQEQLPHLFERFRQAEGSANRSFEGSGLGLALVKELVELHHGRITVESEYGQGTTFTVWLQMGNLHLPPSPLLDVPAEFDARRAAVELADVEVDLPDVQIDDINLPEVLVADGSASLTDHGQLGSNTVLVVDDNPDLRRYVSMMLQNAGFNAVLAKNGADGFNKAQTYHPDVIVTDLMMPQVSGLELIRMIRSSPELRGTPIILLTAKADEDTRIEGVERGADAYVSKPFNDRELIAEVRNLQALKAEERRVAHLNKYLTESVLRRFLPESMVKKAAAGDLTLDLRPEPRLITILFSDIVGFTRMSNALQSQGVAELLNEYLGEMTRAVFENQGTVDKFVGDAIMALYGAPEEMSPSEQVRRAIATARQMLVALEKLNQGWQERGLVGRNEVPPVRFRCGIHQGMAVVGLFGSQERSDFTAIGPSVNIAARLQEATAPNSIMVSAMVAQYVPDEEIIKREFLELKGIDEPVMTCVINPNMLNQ
In words: Inhibition of Spirulina platensis adenylyl cyclase assessed as cAMP level by cAMP immunogenic assay. Further details: species or system Limnospira platensis. Background: Changes in cAMP serve as a functional read-out for many G protein-coupled receptors.

Assay [1] has as its target Adenylate cyclase type 2 (Homo sapiens) (UniProt Q08462). In words: Inhibition of basal activity of adenylyl cyclase 2 expressed in HEK293 cells at 100 uM. In kind it is cell-based.
The target in assay [2] is Adenylate cyclase (Homo sapiens) (UniProt Q8NFM4+O60503+Q08828+P40145+O60266+O95622+O43306+Q08462+P51828). In words: Inhibition of forskolin-stimulated human transmembrane adenylyl cyclase activity in HEK293 cells at 100 uM. It counts as cell-based.
Assay [3] concerns the target Adenylate cyclase type 1 (Homo sapiens) (UniProt Q08828). In words: Inhibition of forskolin-stimulated adenylyl cyclase 1 activity expressed in HEK293 cells at 100 uM. It counts as cell-based.
Assay [4] addresses Adenylate cyclase type 5 (Homo sapiens) (UniProt O95622). In words: Inhibition of forskolin-stimulated adenylyl cyclase 5 activity expressed in HEK293 cells at 100 uM. In kind it is cell-based.
In assay [5] the target is Adenylate cyclase type 2 (Homo sapiens) (UniProt Q08462). Briefly: Stimulation of basal activity of adenylyl cyclase 2 expressed in HEK293 cells at 100 uM in presence of forskolin. It counts as cell-based.
Adenylate cyclase type 2 (Homo sapiens), sequence (Q08462 whole entry): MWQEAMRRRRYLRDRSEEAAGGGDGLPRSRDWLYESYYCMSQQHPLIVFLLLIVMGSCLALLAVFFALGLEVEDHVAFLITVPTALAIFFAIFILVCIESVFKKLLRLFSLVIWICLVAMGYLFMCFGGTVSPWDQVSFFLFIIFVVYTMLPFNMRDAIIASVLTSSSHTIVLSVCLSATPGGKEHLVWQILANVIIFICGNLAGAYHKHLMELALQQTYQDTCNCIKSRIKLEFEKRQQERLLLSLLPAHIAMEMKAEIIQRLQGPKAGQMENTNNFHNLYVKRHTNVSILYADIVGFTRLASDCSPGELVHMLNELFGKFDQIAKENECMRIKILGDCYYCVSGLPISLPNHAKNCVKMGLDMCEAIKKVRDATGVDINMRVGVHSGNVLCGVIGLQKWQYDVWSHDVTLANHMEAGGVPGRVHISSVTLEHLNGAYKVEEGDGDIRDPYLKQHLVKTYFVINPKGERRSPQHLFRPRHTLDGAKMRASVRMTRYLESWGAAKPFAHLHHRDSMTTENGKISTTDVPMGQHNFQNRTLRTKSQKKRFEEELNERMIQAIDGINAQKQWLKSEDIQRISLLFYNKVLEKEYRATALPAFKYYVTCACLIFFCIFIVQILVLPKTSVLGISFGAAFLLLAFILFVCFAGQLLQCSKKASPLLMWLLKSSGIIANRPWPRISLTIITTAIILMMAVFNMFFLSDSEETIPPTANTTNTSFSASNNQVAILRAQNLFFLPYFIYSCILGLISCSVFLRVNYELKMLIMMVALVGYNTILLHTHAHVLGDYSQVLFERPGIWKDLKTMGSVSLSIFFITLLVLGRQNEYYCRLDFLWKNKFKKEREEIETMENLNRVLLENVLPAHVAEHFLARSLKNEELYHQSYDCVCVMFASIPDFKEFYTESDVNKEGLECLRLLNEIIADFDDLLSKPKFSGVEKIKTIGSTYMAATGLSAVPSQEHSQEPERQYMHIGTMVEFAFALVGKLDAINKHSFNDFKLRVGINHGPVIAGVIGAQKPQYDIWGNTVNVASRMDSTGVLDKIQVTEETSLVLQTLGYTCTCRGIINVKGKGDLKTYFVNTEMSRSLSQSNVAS
Assay [6] has as its target Adenylate cyclase type 10 (Homo sapiens, UniProt Q96PN6). Briefly: Inhibition of human recombinant soluble adenylyl cyclase.
Assay [7] has as its target T2, Adenylate cyclase type 9 (Homo sapiens) (UniProt O60503).
T2 sequence (whole entry): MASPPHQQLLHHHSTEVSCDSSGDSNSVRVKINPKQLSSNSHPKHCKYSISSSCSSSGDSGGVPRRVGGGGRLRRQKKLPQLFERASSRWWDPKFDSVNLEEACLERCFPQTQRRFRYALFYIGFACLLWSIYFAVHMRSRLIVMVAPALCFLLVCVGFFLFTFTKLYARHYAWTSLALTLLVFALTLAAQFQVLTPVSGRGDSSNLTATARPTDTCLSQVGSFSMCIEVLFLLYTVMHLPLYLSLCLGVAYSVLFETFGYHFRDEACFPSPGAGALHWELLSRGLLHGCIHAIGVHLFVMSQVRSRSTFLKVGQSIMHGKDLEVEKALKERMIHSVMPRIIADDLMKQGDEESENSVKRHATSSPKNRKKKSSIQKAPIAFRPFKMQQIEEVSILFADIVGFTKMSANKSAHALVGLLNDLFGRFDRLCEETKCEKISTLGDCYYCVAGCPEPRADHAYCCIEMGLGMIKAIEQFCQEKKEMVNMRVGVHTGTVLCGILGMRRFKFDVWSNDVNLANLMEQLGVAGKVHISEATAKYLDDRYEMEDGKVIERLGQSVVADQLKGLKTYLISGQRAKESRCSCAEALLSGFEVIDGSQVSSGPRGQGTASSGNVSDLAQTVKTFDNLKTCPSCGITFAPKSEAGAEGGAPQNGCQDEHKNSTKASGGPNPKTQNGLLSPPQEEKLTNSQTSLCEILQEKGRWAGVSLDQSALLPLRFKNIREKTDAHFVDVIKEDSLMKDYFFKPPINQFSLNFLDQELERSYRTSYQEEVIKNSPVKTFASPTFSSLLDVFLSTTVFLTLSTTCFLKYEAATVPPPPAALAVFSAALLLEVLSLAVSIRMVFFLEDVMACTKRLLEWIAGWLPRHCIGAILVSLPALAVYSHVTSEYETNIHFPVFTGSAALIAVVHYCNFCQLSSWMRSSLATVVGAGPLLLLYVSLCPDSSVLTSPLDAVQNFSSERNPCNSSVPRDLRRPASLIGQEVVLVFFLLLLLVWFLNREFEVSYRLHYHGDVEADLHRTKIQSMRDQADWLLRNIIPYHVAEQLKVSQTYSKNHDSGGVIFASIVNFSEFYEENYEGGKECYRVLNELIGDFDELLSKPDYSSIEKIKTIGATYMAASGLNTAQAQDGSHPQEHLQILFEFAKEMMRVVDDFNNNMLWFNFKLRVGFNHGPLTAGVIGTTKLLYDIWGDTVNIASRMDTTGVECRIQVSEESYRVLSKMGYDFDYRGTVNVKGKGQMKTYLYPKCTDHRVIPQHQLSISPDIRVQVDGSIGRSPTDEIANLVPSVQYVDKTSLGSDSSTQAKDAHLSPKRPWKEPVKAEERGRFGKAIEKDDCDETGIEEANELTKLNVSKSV
In words: Inhibition of basal activity of adenylyl cyclase 9 expressed in HEK293 cells at 100 uM. It counts as cell-based.

IC50 and Activity data for five compounds are collected here from ChEMBL document CHEMBL1155881, “Structure-based development of novel adenylyl cyclase inhibitors” (J Med Chem, 2008).

What is called pIC50 is the negative decadic logarithm of the IC50, by convention in mol/L.

pIC50: −log10 of the molar value. Activity calls are given as the source filed them. No cut-off for these calls is given here.

Adenylate cyclase type 10, sequence (Q96PN6 whole entry): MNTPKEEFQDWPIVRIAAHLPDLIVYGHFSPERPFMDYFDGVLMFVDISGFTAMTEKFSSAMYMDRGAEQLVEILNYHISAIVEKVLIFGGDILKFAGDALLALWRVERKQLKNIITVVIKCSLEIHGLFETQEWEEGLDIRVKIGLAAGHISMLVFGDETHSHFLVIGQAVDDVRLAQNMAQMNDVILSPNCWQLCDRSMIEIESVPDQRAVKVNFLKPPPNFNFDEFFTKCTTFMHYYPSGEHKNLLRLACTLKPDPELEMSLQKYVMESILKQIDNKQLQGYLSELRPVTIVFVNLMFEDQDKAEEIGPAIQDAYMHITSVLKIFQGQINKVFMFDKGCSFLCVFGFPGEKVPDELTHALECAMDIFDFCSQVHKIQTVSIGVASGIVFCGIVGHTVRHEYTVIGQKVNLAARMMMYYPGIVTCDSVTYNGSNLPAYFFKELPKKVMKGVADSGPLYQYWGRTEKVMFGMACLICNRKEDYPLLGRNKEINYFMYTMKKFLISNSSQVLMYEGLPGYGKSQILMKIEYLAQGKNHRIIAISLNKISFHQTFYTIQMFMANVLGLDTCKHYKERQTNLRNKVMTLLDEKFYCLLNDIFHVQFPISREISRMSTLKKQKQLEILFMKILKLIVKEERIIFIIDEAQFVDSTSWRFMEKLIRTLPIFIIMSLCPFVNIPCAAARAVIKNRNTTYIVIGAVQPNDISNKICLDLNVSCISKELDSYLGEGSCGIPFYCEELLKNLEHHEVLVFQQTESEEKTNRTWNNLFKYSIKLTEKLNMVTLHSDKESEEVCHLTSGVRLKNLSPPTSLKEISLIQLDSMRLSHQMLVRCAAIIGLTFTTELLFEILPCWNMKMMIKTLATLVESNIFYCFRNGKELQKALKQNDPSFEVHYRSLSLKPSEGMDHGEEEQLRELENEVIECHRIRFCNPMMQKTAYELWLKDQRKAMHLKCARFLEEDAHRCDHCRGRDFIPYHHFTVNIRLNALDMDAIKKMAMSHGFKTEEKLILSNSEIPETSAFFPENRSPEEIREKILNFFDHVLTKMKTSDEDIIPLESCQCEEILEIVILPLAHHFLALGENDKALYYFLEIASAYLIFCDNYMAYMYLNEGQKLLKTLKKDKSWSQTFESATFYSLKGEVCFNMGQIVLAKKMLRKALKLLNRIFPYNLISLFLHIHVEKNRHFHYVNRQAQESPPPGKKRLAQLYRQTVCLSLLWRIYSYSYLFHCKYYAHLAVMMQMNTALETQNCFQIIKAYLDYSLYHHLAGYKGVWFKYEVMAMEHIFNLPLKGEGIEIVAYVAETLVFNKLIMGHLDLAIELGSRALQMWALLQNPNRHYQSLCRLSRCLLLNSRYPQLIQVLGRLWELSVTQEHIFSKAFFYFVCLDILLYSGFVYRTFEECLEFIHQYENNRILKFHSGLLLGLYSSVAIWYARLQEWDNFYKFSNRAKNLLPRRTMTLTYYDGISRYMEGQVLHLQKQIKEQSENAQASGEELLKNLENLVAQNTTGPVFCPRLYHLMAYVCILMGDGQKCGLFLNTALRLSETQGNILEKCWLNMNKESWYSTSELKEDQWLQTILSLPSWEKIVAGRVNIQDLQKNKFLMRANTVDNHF
Adenylate cyclase type 1 (Homo sapiens), sequence (Q08828 whole entry, looked up): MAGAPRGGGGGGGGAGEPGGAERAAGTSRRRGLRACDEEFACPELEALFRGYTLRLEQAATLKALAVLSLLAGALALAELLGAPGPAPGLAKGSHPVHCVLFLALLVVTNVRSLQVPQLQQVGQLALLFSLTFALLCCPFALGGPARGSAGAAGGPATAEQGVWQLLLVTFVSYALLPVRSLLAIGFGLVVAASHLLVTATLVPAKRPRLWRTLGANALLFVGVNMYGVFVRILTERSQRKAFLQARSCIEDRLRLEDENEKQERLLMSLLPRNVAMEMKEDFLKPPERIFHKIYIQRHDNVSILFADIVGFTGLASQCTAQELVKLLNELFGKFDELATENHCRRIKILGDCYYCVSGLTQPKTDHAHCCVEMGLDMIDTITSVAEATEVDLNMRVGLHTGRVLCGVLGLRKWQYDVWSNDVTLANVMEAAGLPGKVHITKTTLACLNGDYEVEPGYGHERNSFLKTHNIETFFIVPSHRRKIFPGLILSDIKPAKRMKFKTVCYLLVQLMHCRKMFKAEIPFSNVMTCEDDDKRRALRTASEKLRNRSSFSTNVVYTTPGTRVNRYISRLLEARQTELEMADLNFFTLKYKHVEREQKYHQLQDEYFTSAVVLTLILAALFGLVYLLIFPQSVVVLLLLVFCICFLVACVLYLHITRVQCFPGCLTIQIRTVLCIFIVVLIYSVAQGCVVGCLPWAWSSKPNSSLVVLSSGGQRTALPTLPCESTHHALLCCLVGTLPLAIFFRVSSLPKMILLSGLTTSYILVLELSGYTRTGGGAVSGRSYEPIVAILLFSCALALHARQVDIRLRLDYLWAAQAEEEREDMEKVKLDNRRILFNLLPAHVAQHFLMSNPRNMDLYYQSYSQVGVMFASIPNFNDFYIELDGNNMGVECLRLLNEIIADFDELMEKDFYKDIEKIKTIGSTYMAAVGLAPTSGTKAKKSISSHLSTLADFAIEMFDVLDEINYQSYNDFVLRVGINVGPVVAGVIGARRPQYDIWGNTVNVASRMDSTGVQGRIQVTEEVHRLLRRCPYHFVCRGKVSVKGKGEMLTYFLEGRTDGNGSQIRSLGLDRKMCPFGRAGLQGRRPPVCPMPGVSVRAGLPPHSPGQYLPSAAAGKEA
Adenylate cyclase type 5 (Homo sapiens), sequence (O95622 whole entry, looked up): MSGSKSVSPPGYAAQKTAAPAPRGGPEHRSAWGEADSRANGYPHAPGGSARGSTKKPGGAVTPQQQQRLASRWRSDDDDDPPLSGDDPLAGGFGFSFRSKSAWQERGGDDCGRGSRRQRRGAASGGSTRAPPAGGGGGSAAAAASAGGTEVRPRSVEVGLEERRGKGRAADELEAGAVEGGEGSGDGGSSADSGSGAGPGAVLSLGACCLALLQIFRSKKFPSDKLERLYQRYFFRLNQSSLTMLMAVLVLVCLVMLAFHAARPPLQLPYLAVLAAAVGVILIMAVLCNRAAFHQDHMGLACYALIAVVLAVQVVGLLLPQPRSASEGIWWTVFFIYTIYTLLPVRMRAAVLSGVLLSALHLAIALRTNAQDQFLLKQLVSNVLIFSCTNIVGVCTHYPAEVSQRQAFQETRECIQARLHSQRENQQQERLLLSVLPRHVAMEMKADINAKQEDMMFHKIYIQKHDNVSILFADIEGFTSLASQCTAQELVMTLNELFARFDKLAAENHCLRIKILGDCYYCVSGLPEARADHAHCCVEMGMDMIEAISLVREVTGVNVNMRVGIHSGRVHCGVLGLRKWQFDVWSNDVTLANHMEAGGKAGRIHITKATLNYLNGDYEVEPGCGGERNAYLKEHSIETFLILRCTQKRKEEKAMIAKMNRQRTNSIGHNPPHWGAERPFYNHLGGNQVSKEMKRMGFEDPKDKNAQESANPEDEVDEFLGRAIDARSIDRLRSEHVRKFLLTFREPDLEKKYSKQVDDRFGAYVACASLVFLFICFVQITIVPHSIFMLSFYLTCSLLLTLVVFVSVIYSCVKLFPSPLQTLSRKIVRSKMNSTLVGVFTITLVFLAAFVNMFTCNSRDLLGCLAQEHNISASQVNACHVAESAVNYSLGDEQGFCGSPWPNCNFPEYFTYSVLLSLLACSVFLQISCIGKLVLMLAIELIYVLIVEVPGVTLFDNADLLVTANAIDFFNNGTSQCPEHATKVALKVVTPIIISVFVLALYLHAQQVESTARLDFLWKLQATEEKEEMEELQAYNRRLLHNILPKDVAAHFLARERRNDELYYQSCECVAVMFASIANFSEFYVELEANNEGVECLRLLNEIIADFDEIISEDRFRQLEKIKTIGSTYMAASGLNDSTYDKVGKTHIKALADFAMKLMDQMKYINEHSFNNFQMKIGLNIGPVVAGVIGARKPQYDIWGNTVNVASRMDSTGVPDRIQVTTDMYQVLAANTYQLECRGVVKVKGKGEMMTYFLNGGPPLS

On to `C[C@H]1[C@H](C)CC[C@]2(C(=O)O)CC[C@]3(C)C(=CC[C@@H]4[C@@]5(C)C[C@@H](O)[C@H](O)[C@@](C)(CO)[C@@H]5[C@H](O)C[C@]43C)[C@H]12` [MADECASSIC ACID], for which the pIC50 on Adenylate cyclase was 4.00.

With `BrC(c1cccc2ccccc12)c1cccc2ccccc12`, the negative-log IC50 (pIC50) at Adenylate cyclase is 3.70.

Regarding `O=C(O)c1cc2c(cc1S(=O)(=O)O)C1C(C3C2C2(Cl)C(Cl)=C(Cl)C3(Cl)C2(Cl)Cl)C2(Cl)C(Cl)=C(Cl)C1(Cl)C2(Cl)Cl` (stereo unspecified), the result in assay [1], in assay [2], in assay [3], in assay [4], in assay [5] and in assay [7] was Active. Moreover, the negative-log IC50 (pIC50) in assay [6] is 4.96.

Take `C[C@]12CC[C@H]3[C@@H](CCC4=CC(=O)CC[C@@]43C)[C@@H]1CC[C@@H]2C(=O)COS(=O)(=O)c1ccc(Br)cc1`: the outcome in assay [1], in assay [2], in assay [3], in assay [4] and in assay [7] was inactive. The negative-log IC50 (pIC50) in assay [6] is 5.96.

Take `C[C@]12CC[C@@H]3c4cc(O)c(O)cc4CC[C@H]3[C@@H]1CC[C@@H]2O`: the pIC50 in assay [6] was 5.52.
